Results: patent US8993585B2, “Cyclic amine substituted pyrimidinediamines as PKC inhibitors” (Rigel Pharmaceuticals, Inc., priority 2007, dated 2015)
pIC50: −log10 of the molar value.

Tests used:
PKC theta = biological target: T1, PKC theta (Homo sapiens, UniProt Q04759); test: PKC assay, fluorescence polarization (Example 2), PKC theta; type: biochemical; conditions: 5 μM ATP
T1 construct: purchased Upstate Biotechnologies, Temecula, CA 14-444
Protocol: The inhibition of PKC activity was measured by monitoring the production of phosphorylated peptide by fluorescence polarization at different concentrations of the inhibitor. Reactions were carried out in 96-well plate format with a total volume of 20 μL containing 20 mM HEPES, pH 7.4, 5 mM MgCl2, 0.2 mM CaCl2, 1 mM DTT, 0.02% Brij-35, 0.1 mg/mL phosphatidylserine, 0.02 mg/mL dioleoyl-sn-glycerol and 5 μM each of ATP and the peptide substrate. Compounds were first diluted serially in DMSO and then transferred to a solution containing the above concentrations of HEPES, MgCl2, CaCl2, DTT, and Brij-35 to yield 5× compound solutions in 2% DMSO, which was then added to the reaction solution. Reactions were initiated by the addition of PKC at a typical concentration as described in Table VI, and then allowed to incubate at room temperature for 20 min. At the end of this time, a combination of quench (EDTA) and detection (peptide tracer and antibody) reagents was added using the protocol of Invitrogen P2748.

Human primary T cells = test: IL-2 ELISA, Human Primary T Cell, Anti-CD3+CD28+ (Example 3); type: cell-based; conditions: anti-CD3+CD28 stimulation
How it was run: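 IL-2 was read by ELISA after stimulation on wells pre-coated with 1 ug/ml αCD3 and 5 μg/ml αCD28. Before this, 100,000 human primary T cells per well spent 1 h at 37 °C with test compound in Yssel's medium. The counter-screen replaced antibody stimulation with PMA (0.5 ng/ml final) and ionomycin (0.1 uM final).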

T1 sequence (Q04759 whole entry): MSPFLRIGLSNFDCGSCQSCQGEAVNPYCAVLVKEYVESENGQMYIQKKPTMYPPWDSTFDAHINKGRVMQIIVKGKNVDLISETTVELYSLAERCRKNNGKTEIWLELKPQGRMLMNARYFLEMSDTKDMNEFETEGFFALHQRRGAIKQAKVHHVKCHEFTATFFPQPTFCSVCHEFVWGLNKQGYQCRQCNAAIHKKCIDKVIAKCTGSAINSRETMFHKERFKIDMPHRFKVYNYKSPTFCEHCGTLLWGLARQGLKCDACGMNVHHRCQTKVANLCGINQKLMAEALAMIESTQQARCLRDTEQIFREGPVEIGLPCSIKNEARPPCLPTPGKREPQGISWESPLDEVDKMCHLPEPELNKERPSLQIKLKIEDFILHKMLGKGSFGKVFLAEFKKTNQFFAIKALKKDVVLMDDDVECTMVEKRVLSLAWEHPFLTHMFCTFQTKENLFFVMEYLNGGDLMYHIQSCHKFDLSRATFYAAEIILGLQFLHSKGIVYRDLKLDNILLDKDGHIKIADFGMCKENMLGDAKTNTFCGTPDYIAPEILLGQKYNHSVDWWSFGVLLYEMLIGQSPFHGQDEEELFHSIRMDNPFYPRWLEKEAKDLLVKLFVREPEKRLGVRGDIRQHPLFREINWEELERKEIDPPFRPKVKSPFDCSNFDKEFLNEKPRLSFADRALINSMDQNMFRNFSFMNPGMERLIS

SMILES | pIC50 (PKC theta) | pIC50 (Human primary T cells; Homo sapiens, T-cell, 24 h) | pIC50 (Human primary T cells; 24 hours)
COc1ccc(Nc2ncc(Cl)c(NC3CC(C)(C)N(C)C(C)(C)C3)n2)cc1Cl [Compound I-31] | 8.30 | 7.04 | 
CN1C(=O)COc2cc(Nc3ncc(F)c(NC4CC(C)(C)N(C)C(C)(C)C4)n3)ccc21 [II-6] | 8.22 | 6.61 | 
Cc1ccc(Nc2ncc(F)c(NC3CC(C)(C)N(C)C(C)(C)C3)n2)cc1Br [Compound I-160] | 7.49 | 6.69 | 
CN1C(C)(C)CC(Nc2nc(Nc3ccc(C(F)(F)F)c(Cl)c3)ncc2F)CC1(C)C [Compound I-337] | 6.60 | 6.51 | 
CN1C(C)(C)CC(Nc2nc(Nc3ccc(N4CCN(S(=O)(=O)C5CC5)CC4)c(C(F)(F)F)c3)ncc2F)CC1(C)C [Compound I-173] | 7.58 | 6.42 | 
CN1C(C)(C)CC(Nc2nc(Nc3ccc(N4CCN(S(C)(=O)=O)CC4)c(C#N)c3)ncc2F)CC1(C)C [Compound I-164] | 8.67 | 6.65 | 
CN1CCN(c2ccc(Nc3ncc(F)c(NC4CC(C)(C)N(C)C(C)(C)C4)n3)cc2Cl)CC1 [Compound I-3] | 8.30 | 6.97 | 
CN1C(C)(C)CC(Nc2nc(Nc3ccc(C#N)c(Cl)c3)ncc2Cl)CC1(C)C [Compound I-35] | 7.62 | 6.84 | 
CN1CCC(Nc2nc(Nc3cccc(C#N)c3)ncc2F)CC1 [III-2, N2-(3-Cyano)phenyl-5-fluoro-N4-(1-methylpiperidin-4-yl)-2,4-pyrimidinediamine] | 6.89 | 5.97 | 
Cc1ccc(Nc2ncc(F)c(NC3CC(C)(C)N(C)C(C)(C)C3)n2)cc1-c1cnn(C)c1 [Compound I-190] | 7.84 | 6.29 | 
CN1CCN(c2ccc(Nc3ncc(F)c(NC4CCC(C)(C)N(C)C(C)(C)C4)n3)cc2C(F)(F)F)CC1 (stereo not drawn) [Compound I-270, 5-Fluoro-N2-[4-methylpiperizine-3-trifluoromethyl]phenyl-N4-(1,2,2,7,7-pentamethylazepan-4-yl)-2,4-pyrimidinediamine] |  |  | 5.46
CN1C(C)(C)CC(Nc2nc(Nc3cc(OCC(F)(F)F)cc(OCC(F)(F)F)c3)ncc2C(N)=O)CC1(C)C [Compound I-406] |  |  | 6.32
CN1C(C)(C)CC(Nc2nc(Nc3ccc(N4CCN(S(C)(=O)=O)CC4)c(C#N)c3)ncc2C(F)(F)F)CC1(C)C [Compound I-176] |  |  | 6.18
COc1cc(Cl)c(Nc2ncc(F)c(NC3CC(C)(C)N(C)C(C)(C)C3)n2)cc1OC [Compound I-386] |  |  | 5.49
COc1cc(Nc2ncc(F)c(NC3CC(C)(C)N(C)C(C)(C)C3)n2)cc(OCCn2cccc2)c1 [Compound I-437] |  | 6.77 | 
COc1cc(Nc2ncc(C#N)c(NC3CC(C)(C)NC(C)(C)C3)n2)cc(-n2nnnc2C)c1 [Compound I-402] |  |  | 6.33
CN1C(C)(C)CC(Nc2nc(Nc3ccc(OCCN4CCOCC4)c(Cl)c3)ncc2F)CC1(C)C [Compound I-368] |  |  | 6.53
COc1cc(Nc2ncc(F)c(NC3CC(C)(C)N(C)C3(C)C)n2)cc(OC)c1OC (stereo not drawn) [Compound I-282, 5-Fluoro-N2-(3,4,5-trimethoxy)phenyl-N4-(1,2,2,5,5-pentamethylpyrrolidin-3-yl)-2,4-pyrimidinediamine] |  |  | 4.81
CN1C(C)(C)CC(Nc2nc(Nc3ccc(N4CCN(S(C)(=O)=O)CC4)c(C(F)(F)F)c3)ncc2[N+](=O)[O-])CC1(C)C [Compound I-78] |  |  | 6.03
COc1ccc(Nc2ncc(F)c(NC3CC(C)(C)N(C)C(C)(C)C3)n2)cc1OC(F)(F)F [Compound I-343] |  |  | 6.50
CN1C(C)(C)CC(Nc2nc(Nc3ccc4c(c3)CCC(=O)N4)ncc2F)CC1(C)C [II-2] |  |  | 5.85
Cc1ccc(Nc2ncc(F)c(N(Cc3ccc4ccccc4n3)C3CC(C)(C)N(C)C(C)(C)C3)n2)cc1C#N [Compound I-320] |  | 5.21 | 

SMILES | pIC50 (PKC theta) | pIC50 (Human primary T cells; Homo sapiens, T-cell, 24 h) | pIC50 (Human primary T cells; 24 hours)
Cc1csc(-c2ccc(Nc3ncc(F)c(NC4CC(C)(C)N(C)C(C)(C)C4)n3)cc2C(F)(F)F)c1 [Compound I-116] |  |  | 5.91
CN1C(C)(C)CC(Nc2nc(Nc3cnc(N4CCOCC4)c(C(F)(F)F)c3)ncc2F)CC1(C)C [Compound I-271] |  |  | 6.17
CC1(C)CC(Nc2nc(Nc3cccc(-n4cnnn4)c3)ncc2C(N)=O)CC(C)(C)N1 [Compound I-392] |  |  | 5.35
CN1C(C)(C)CC(Nc2nc(Nc3ccc(N4CCCCC4)c(C(F)(F)F)c3)ncc2F)CC1(C)C [Compound I-233] |  |  | 5.80
CCN(CC)C1CCC(Nc2nc(Nc3cccc(C#N)c3)ncc2F)CC1 (stereo not drawn) [IV-6, N2-(3-Cyano)phenyl-N4-(4-diethylamino)cyclohexyl-5-fluoro-2,4-pyrimidinediamine] |  | 5.35 | 
CC(C)N1C(=O)C(C)(C)Oc2cc(Nc3ncc(C#N)c(NC4CC(C)(C)N(C)C(C)(C)C4)n3)ccc21 [II-74] |  | 6.46 | 
CN1C(C)(C)CC(Nc2nc(Nc3ccc(N4CCN(S(C)(=O)=O)CC4)c(C(F)(F)F)c3)ncc2C(N)=O)CC1(C)C [Compound I-90] |  |  | 5.54
CN1C(C)(C)CC(Nc2nc(Nc3nc(C(F)(F)F)co3)ncc2F)CC1(C)C [II-134] |  | 4.80 | 
CN1C(C)(C)CC(Nc2nc(Nc3nc(-c4cccnc4)cs3)ncc2F)CC1(C)C [II-136] |  | 6.04 | 
CN1CCC(c2ccc(Nc3ncc(F)c(NC4CC(C)(C)N(C)C(C)(C)C4)n3)cc2)CC1 [Compound I-221] |  |  | 5.90
CN1C(C)(C)CC(Nc2nc(Nc3ccc(Cl)c(N4CCN(S(C)(=O)=O)CC4)c3)ncc2F)CC1(C)C [Compound I-68] |  |  | 6.23
Cc1nnnn1-c1ccc(Nc2ncc(F)c(NC3CC(C)(C)N(C)C(C)(C)C3)n2)cc1 [Compound I-454] |  |  | 5.20
CN1C(C)(C)CC(Nc2nc(Nc3cnc(N4CCN(S(C)(=O)=O)CC4)c(Cl)c3)ncc2F)CC1(C)C [Compound I-289] |  |  | 6.37
COc1cc(Nc2ncc(F)c(NC3CC(C)(C)N(C)C(C)(C)C3)n2)ccc1-n1nnnc1C [Compound I-407] |  |  | 5.57
CN1CCN(C(=O)c2ccc(Nc3ncc(F)c(NC4CC(C)(C)N(C)C(C)(C)C4)n3)cc2C(F)(F)F)CC1 [Compound I-64] |  |  | 5.59
COc1ccc(Nc2ncc(F)c(NC3CC(C)(C)N(C)C3(C)C)n2)cc1Cl (stereo not drawn) [Compound I-280, 5-Fluoro-N2-(3-chloro-4-methoxy)phenyl-N4-(1,2,2,5,5-pentamethylpyrrolidin-3-yl)-2,4-pyrimidinediamine] |  |  | 5.56
CN1C(C)(C)CC(Nc2nc(Nc3ccc(N4CCN(S(C)(=O)=O)CC4)c(C(F)(F)F)c3)ncc2F)CC1(C)C [Compound I-48] |  |  | 7.41
CCNC(=O)Nc1cccc(Nc2ncc(F)c(NC3CC(C)(C)N(C)C(C)(C)C3)n2)c1 [Compound I-138] |  |  | 5.50
CCN(CC)C1CCC(Nc2nc(Nc3ccc(N4CCN(C)CC4)c(C(F)(F)F)c3)ncc2F)CC1 (stereo not drawn) [IV-7, N4-(4-Diethylamino)cyclohexyl-5-fluoro-N2-[4-(4-methylpiperazino)-3-trifluoromethyl]phenyl-2,4-pyrimidinediamine] |  |  | 5.44
CNC(=O)COc1cccc(Nc2ncc(F)c(NC3CC(C)(C)N(C)C(C)(C)C3)n2)c1 [Compound I-136] |  |  | 5.81
COc1cc(Nc2ncc(F)c(NC3CC(C)(C)NC(C)(C)C3)n2)cc(OCCN2CCOCC2)c1 [Compound I-432] |  | 5.82 | 
CN1C(C)(C)CC(Nc2nc(Nc3ccc(-n4nnnc4-c4ccco4)cc3)ncc2F)CC1(C)C [Compound I-458] |  |  | 6.10
